{
  "source": "patent US5721265A",
  "about": "“Fluorinated 2-nitroimidazole analogs for detecting hypoxic tumor cells” (priority 1995, dated 1998)",
  "key": {"log P (lipophilicity)": {"assay": "log P (lipophilicity)", "type": "physicochemical"}, "[1]": {"assay": "reductive metabolism of SR 4554 by mouse liver microsomes under hypoxia (HPLC)", "type": "in vitro ADME", "procedure": "(§1) The chromatographic system consisted of a WISP Model 712 autosampler (Waters Chromatography Ltd.), Model 660 gradient controller with a quaternary HPLC pump, a Model 991 photodiode array detector and a NEC Powermate SX/16 personal computer running Waters 991 photodiode array software. A reversed phase chromatographic separation was performed on a 10 μm μ Bondapak C18 (3.9×300 mm) analytical column (Millipore) at ambient temperature. Pellicular ODS (Whatman) packed in a 2×6.5 mm stainless steel column (Upchurch Scientific, Inc.) was used as a pre-column. The mobile phase was methanol/H2 O) (15:85). All solvents were filtered through a 0.45 μm Teflon PTFE/polypropylene filter membrane, de-gassed with helium and delivered isocratically at a flow rate of 2 ml/min. The column effluent was monitored by UV-photodiode array detection at 324 nm (UV range=200 to 500 nm). The peak area ratio of analyte to internal standard was used for conversion of the detector response to concentration estimates via the construction of a calibration curve.\nSR 4554 was reduced by mouse liver microsomes as well as purified rat and human cytochrome P450 reductase under hypoxia (100% nitrogen).\nThe characteristics of reductive metabolism of SR 4554 by mouse liver microsomes (0.5 mg/ml protein) are depicted in FIG. 1. Samples were removed at various time points, extracted with silver nitrate and analyzed by high performance liquid chromatography (HPLC) as described above. […] The cytochrome P450 inhibitor--carbonmonoxide--inhibited the hypoxic metabolism of SR 4554 by 15%."}, "[2]": {"assay": "pharmacokinetics of SR 4554 in EMT-6 tumor-bearing mice (HPLC)", "type": "in vivo, mouse", "procedure": "Silver nitrate solution (25 μl; 30% w/v) was added to 250 μl of tissue samples and standards and to 20 μl of internal standard solution (12.5 μg/ml in 0.1M Tris buffer, pH 7.4). Samples were then vortexed and centrifuged (2000×g) for 5 min. The extracted samples 50 μl) were then injected into the HPLC.\nas §1\nEMT-6 tumor-bearing mice were used in this study. Mice were given a single intraperitoneal or intravenous injection (180 mg/kg body weight) or a single oral dose (p.o. 90 mg/kg) by lavage of SR 4554. Three mice were sacrificed per time point and blood obtained by cardiac puncture. The blood obtained was centrifuged to give plasma. Tumors, livers and brain were also obtained at various time points. Samples were extracted with silver nitrate and analyzed by high performance liquid chromatography (HPLC) using the procedures described in Example 4."}, "[3]": {"assay": "urinary excretion of SR 4554 in non-tumor-bearing female Balb/c mice", "type": "in vivo, mouse", "settings": "urine"}, "[4]": {"assay": "toxicity of SR 4554 in female Balb/c mice", "type": "in vivo, mouse", "procedure": "Toxicity studies of SR 4554 were done in female Balb/c mice. Mice were injected with SR 4554 i.v with 191 mg/kg ([…]) body weight or i.p. with 383 mg/kg ([…]) body weight. Control mice were injected with an equivalent volume of solvent (saline)."}, "RIF-1 tumors": {"system": "RIF-1 tumors", "assay": "retention in RIF-1 tumor-bearing C3H/He mice by 19F magnetic resonance spectroscopy (and HPLC)", "type": "in vivo, mouse", "procedure": "(§2) SR 4554 was administered as a single intraperitoneal injection of 180 mg/kg to RIF-1 tumor-bearing female C3 H/He mice and EMT-6 tumor-bearing female Balb/c mice. In some experiments, hydralazine ([…] i.v.) was administered 1 h prior to the administration of SR 4554. Magnetic resonance spectroscopy (MRS) was conducted on a 4.7 Tesla (SISCO) nuclear magnetic resonance (NMR) spectrometer using a double-tuned (^19 F/^2 H) circuit at 45 min and 6 hr post injection of SR 4554. Drug concentrations were obtained using a modification of the method of Thulborn et al. (1983) J. Magn. Reson. 55:357-371. Specifically, the ^19 F signal intensity was related to the natural abundance ^2 H signal from tissue water. Calibrations involved the use of a reference bulb containing 5-fluorotryptophan (5-FTP) and acetic acid-d (AcOH-d). Tumors were excised immediately after MRS examination and original drug levels determined by high performance liquid chromatography (HPLC), as described in Example 6.\nIt is assumed that the retention of high concentrations of ^19 F at 6 hr, despite the much lower (20 fold) concentration of original drug detected by HPLC at […], represent one or more nitro-reduced metabolites.\nThe retention of drug signal in RIF-1 tumors is plotted as a function of tumor weight in FIG. 7. Tumor ^19 F signal levels at 6 hrs and 45 min were calculated in μmol/g tumor. The retention of ^19 F at 6 hrs relative to 45 min in the same tumors was compared to corresponding tumor weights in grams. In this tumor model (a low hypoxic fraction tumor) the relative retention (6 hrs/45 min) correlated with tumor weight (corr. coeff.=0.83)."}, "EMT-6 tumors": {"system": "EMT-6 tumors", "assay": "retention in EMT-6 tumor-bearing Balb/c mice by 19F magnetic resonance spectroscopy", "type": "in vivo, mouse", "procedure": "as §2\nRIF-1 and EMT-6 tumors have a low and a high radiobiological hypoxic fraction, respectively. Moulder et al. (1984), supra."}, "C3H mouse mammary tumor": {"system": "C3H mouse mammary tumor", "assay": "influence of carbogen breathing on SR 4554 retention within the C3H mouse mammary tumor", "type": "in vivo", "description": "Table 4 presents the influence of high levels of oxygen (carbogen breathing) on SR 4554 retention within the C3H mouse mammary tumor."}, "[5]": {"settings": "per amount injected 3.34-3.55 mg"}},
  "note": "Values joined by “and” are separate entries in the source; they are usually repeats but may differ in a detail not shown here. Equal entries are not always repeated. “Also recorded” adds a separate entry of the source. Where two headings read alike, the source gives them in different places.",
  "data": [
    {"smiles": "O=C(Cn1ccnc1[N+](=O)[O-])NCC(O)C(F)(F)F", "note": "(racemic) [SR 4554]", "values": [
      {"measurement": "logP", "setting": "log P (lipophilicity)", "value": -0.2},
      {"measurement": "inhibition of reduction by cytochrome P450 reductase inhibitor", "setting": "[1]; TlCl3.4H2O, 0.2 mg/ml", "value": "completely inhibited"},
      {"measurement": "inhibition of reduction by air", "setting": "[1]; in air", "value": "completely inhibited"},
      {"measurement": "Vmax of microsomal metabolism", "setting": "[1]; mouse liver microsomes", "value": 16.84, "unit": "nmol/min/mg"},
      {"measurement": "other nitro-containing species upon metabolism", "setting": "[1]; mouse liver microsomes 0.5 mg/ml protein", "value": "No other nitro-containing species were observed"},
      {"measurement": "reduced under hypoxia", "setting": "[1]; mouse liver microsomes, 100% nitrogen", "value": "reduced; also recorded: metabolized under hypoxic conditions"},
      {"measurement": "Km", "setting": "[1]; mouse liver microsomes, read-out: Km of microsomal metabolism", "value": 650, "unit": "µM"},
      {"measurement": "inhibition of reduction in the absence of cofactor (NADPH)", "setting": "[1]; without NADPH", "value": "completely inhibited"},
      {"measurement": "brain/plasma ratio over time", "setting": "[2]; i.p.", "value": "generally remained low throughout the observation period"},
      {"measurement": "liver/plasma ratio over time", "setting": "[2]; i.p.", "value": "decreased very rapidly"},
      {"measurement": "time of peak tumor/plasma ratio", "setting": "[2]; i.p.", "value": "about 90 min"},
      {"measurement": "liver/plasma and brain/plasma ratios at 240 min", "setting": "[2]; i.p., 240 min", "value": "about the same"},
      {"measurement": "bioavailability ratio relative to i.v., i.v.", "setting": "[2]; i.v. 180 mg/kg", "value": 100, "unit": "%"},
      {"measurement": "detectable in plasma until", "setting": "[2]; limit of detection=25 ng/ml, postinjection", "value": "≥ 6", "unit": "h"},
      {"measurement": "brain levels and brain/plasma ratio", "setting": "[2]; mice", "value": "generally low"},
      {"measurement": "accumulation in the brain", "setting": "[2]; mouse, in vivo", "value": "does not accumulate to any appreciable degree in the brain"},
      {"measurement": "bioavailability", "setting": "[2]; mouse, in vivo, ip, i.p. 180 mg/kg, read-out: bioavailability ratio relative to i.v., i.p.", "value": 100, "unit": "%"},
      {"measurement": "bioavailability", "setting": "[2]; mouse, in vivo, po, p.o. 90 mg/kg, read-out: bioavailability ratio relative to i.v., p.o.", "value": 95.5, "unit": "%"},
      {"measurement": "Cmax", "setting": "[2]; mouse, plasma, read-out: Cmax, plasma", "value": 145, "unit": "µg/mL"},
      {"measurement": "half-life", "setting": "[2]; mouse, plasma, read-out: half life, t1/2, plasma", "value": "50.8 ± 1.6", "unit": "min"},
      {"measurement": "Tmax", "setting": "[2]; mouse, plasma, read-out: tmax, plasma (converted)", "value": 30, "unit": "min"},
      {"measurement": "concentration at 6 h", "setting": "[2]; mouse, tissue, limit of detection, 6 hours, read-out: tissue levels of drug at 6 hours", "value": "< 100", "unit": "ng/g"},
      {"measurement": "Cmax", "setting": "[2]; mouse, tumor, read-out: Cmax, tumor", "value": 52000, "unit": "ng/g"},
      {"measurement": "half-life", "setting": "[2]; mouse, tumor, read-out: half life, t1/2, tumor", "value": "51.5 ± 4.4", "unit": "min"},
      {"measurement": "Tmax", "setting": "[2]; mouse, tumor, read-out: tmax, tumor (converted)", "value": 45, "unit": "min"},
      {"measurement": "dose excreted", "setting": "[3]; mouse, read-out: detected as unchanged parent compound in urine", "value": "≤ 66", "unit": "%"},
      {"measurement": "Amount of Drug Excreted", "setting": "[3]; [5]", "value": "2.62 mg and 2.39 mg and 1.83 mg"},
      {"measurement": "Fraction of Dose Excreted", "setting": "[3]; [5]", "value": "73.80% and 71.56% and 52.59%"},
      {"measurement": "behavioral changes or deaths", "setting": "[4]; i.v. 191 mg/kg or i.p. 383 mg/kg", "value": "no behavioral changes or deaths were observed"},
      {"measurement": "bodyweight changes between treated and control mice", "setting": "[4]; mouse, in vivo", "value": "No differences were observed"},
      {"measurement": "Retention (mean ± S.D.), + hydralazine", "setting": "RIF-1 tumors; RIF-1 + hydralazine 1 h prior, n = 6", "value": "1.27 ± 0.50"},
      {"measurement": "Retention (mean ± S.D.)", "setting": "RIF-1 tumors; RIF-1, 180 mg/kg i.p., n = 13, tumor weight 0.5 to 2.7 g", "value": "0.53 ± 0.27"},
      {"measurement": "clearance from the brain and retention in tumors", "setting": "RIF-1 tumors; RIF-1 mice", "value": "rapidly cleared from the brain but selectively retained in tumors"},
      {"measurement": "tumor drug level, 7 hrs (HPLC)", "setting": "RIF-1 tumors; RIF-1 tumor, original drug, 7 hrs, HPLC", "value": "0.009 μmol/g tissue and 0.008 μmol/g tissue and 0.007 μmol/g tissue"},
      {"measurement": "concentration of original drug (HPLC, 7 hrs) lower than 19F (MRS, 6 hr)", "setting": "RIF-1 tumors; RIF-1 tumors", "value": 20, "unit": "fold"},
      {"measurement": "increase in retention on hydralazine pre-treatment", "setting": "RIF-1 tumors; hydralazine 1 h prior", "value": "two-fold increase"},
      {"measurement": "Retention (mean ± S.D.)", "setting": "EMT-6 tumors; EMT-6, 180 mg/kg i.p., n = 12", "value": "1.04 ± 0.66"},
      {"measurement": "retention in EMT-6 compared with RIF-1 tumors", "setting": "EMT-6 tumors; MRS", "value": "greater in EMT-6 tumors than in RIF-1 tumors"},
      {"measurement": "Retention, air breathing", "setting": "C3H mouse mammary tumor; Air (20% O2)", "value": "0.62 +/- 0.17"},
      {"measurement": "Retention, carbogen breathing", "setting": "C3H mouse mammary tumor; Carbogen (95% O2)", "value": "0.11 +/- 0.05"},
      {"measurement": "reduction in retention, carbogen vs air", "setting": "C3H mouse mammary tumor; carbogen vs air", "value": "significant (P<0.01) reduction"}
    ]}
  ]
}
